We go through 1 compound from patent US10888505B2, “Dosage of foam for delivering consumer desired dosage volume, surfactant amount, and scalp health agent amount in an optimal formulation space” (The Procter & Gamble Company, priority 2016, dated 2021).

SMILES strings stand for the structures. Where two headings read alike, the source gives them in different places.

The test system of this test is Malassezia furfur. To be noted: inhibition of growth of the Malassezia fungus. The method, then:
Malassezia furfur is grown in a flask containing mDixon medium (see E. Gueho, et. al. Antoninie Leeuwenhock (1996), no. 69, 337-55, which description is incorporated by reference herein). Dilutions of solubilized anti-microbial active or diluted products are then added to test tubes containing molten mDixon agar. M. furfur inoculum is added to each tube of molten agar, the tube vortexed, and the contents poured into separate sterile petri dishes. After the plates are incubated, they are observed for visible M. furfur growth. The lowest tested dilution of anti-microbial active or finished product that comprises that yields no growth is defined as the Minimal Inhibitory Concentration (MIC).

As for `[O-]n1ccccc1=S.[O-]n1ccccc1=S.[Zn+2]` [ZPT, zinc salt of 1-hydroxy-2-pyridinethione], the “Minimum Inhibitory Concentration (MIC)” value (parts active per million parts product and dilution media) was 5 ppm; the “Minimum Inhibitory Concentration (MIC)” value (same MIC expressed as g active per 100 g (product + dilution solution)) was 0.0005 g/100 g.
